The values that follow come from patent US7087622B2, “Pyridone compounds as inhibitors of bacterial type III protein secreation systems” (priority 2004, dated 2006).

Structures are written as SMILES.

Test [1] relates to SPI1 type III protein secretion system (SopE-Bla secretion). The test is described as follows: Primary assay: Type III protein secretion of the chimeric SopE-Bla polypeptide by Salmonella enterica (nitrocefin hydrolysis). As to conditions: read-out: SopE IC50(uM). In kind it is cell-based. The source says:
Primary assay: Type III protein secretion of the chimeric SopÉ-Bla polypeptide by Salmonella enterica. This procedure is a cell-based assay that measures the type III-dependent secretion by Salmonella enterica of a plasmid-encoded chimeric polypeptide whose synthesis can be regulated, and which is endowed with an enzymatic activity that can be monitored calorimetrically by hydrolysis of a substrate that is unable to penetrate into the bacterial cytoplasm within the time constraints of the reaction. Thus, the colorimetric reaction is not influenced by SopÉ-Bla polypeptide in the bacterial cytoplasm. Instead, it effectively measures the amount of polypeptide that has been secreted from the S. enterica cytoplasm to the extracellular medium via type III system protein secretion.
The SopÉ-Bla recombinant polypeptide consists of two functionally distinct domains spliced together. The N-terminus domain is encoded by a polynucleotide region specifying the signal for type III secretion of the SopE polypeptide of S. enterica, an effector of the SPI1 type III protein secretion system. The C-terminus domain of SopÉ-Bla consists of a 263 amino acid peptide sequence that corresponds to the TEM-1 β-lactamase expressed by plasmid pBR322 but without its N-terminal signal sequence. The TEM-1 β-lactamase part of the SopÉ-Bla chimeric polypeptide is used as a reporter enzyme. It is capable of hydrolyzing nitrocefin resulting in a product whose accumulation can be monitored by colorimetric detection. The secretion of the SopÉ-Bla chimeric polypeptide from the cytoplasm to the extracellular medium is dependent on type III protein secretion.
For this procedure, cells grown under conditions known to favor a functional SPI1 secretion system are induced for expression of the SopÉ-Bla protein and grown either in the presence or in the absence of putative inhibitors for determined time. Nitrocefin is then added to the various cultures and its hydrolysis are used for quantitation. An inhibitor of Type III protein secretion is generally a compound that reduces the signal of the enzymatic reaction by decreasing the amount of SopÉ-Bla secreted into the extracellular medium.

Test [2] concerns SPI1 type III protein secretion system (SipB secretion). The test is described as follows: Secondary assay: Type III-dependent protein secretion of the SipB polypeptide by S. enterica (immunoblot). In kind it is cell-based. The settings on record: Salmonella enterica, read-out: SipB IC50(uM). How it is done: Secondary assay: Type III-dependent protein secretion of the SipB polypeptide by S. enterica. The SipB protein of S. enterica is another effector of the SPI1 type III protein secretion system from S. enterica. In this cell-based procedure, the Type III-dependent secretion of SipB from the bacterial cytoplasm to the extracellular medium was measured through its reactivity with a cognate mouse monoclonal.
Salmonella enterica cells growing either in the presence or in the absence of inhibitors are induced for the production of SipB. Following an established period of growth the cells are sedimented and the amount of SipB present in the supernatant is quantified with a scanning imager following application of immunoblot techniques. Detection may employ an anti-SipB mouse monoclonal antibody (e.g., obtained from Jorge Galan, SUNY at Stony Brook, N.Y.) followed by treatment with commercially available sheep anti-mouse polyclonal antibody conjugated with horseradish peroxidase. Thereafter the membrane is treated with a peroxidase chemiluminescent substrate and exposed to film for an appropriate exposure time. Inhibition may be measured relative to untreated controls.
(A western blot detects proteins with antibodies after separation by electrophoresis.)

What is called IC50 is the concentration at which inhibition is half-maximal. As for `O=C(Nc1cc(-c2cccc3ccccc23)cn(C(CSCc2ccccc2)C(=O)O)c1=O)c1ccc(C(F)(F)F)cc1` (stereo in doubt) [Compound 16, (R)-3-Benzylsulfanyl-2-[5-naphthalen-1-yl-2-oxo-3-(4-trifluoromethyl-benzoylamino)-2H-pyridin-1-yl]propionic acid], the values for the IC50 in test [1] and in test [2] were 6.4 µM and > 100 µM, respectively.

For the molecule `O=C(Nc1cc(-c2ccc(-c3ccccc3)cc2)cn([C@@H](Cc2ccccc2)C(=O)O)c1=O)c1ccc(C(F)(F)F)cc1` [Compound 2, (S)-2-[5-Biphenyl-4-yl-2-oxo-3-(4-trifluoromethylbenzoylamino)-2H-pyridin-1-yl]-3-phenylpropionic acid], the IC50 is 9.3 µM in test [1] and > 100 µM in test [2].

Take `O=C(Nc1cc(-c2ccc3ccccc3c2)cn([C@@H](Cc2ccccc2)C(=O)O)c1=O)c1ccc(C(F)(F)F)cc1` [Compound 3, (S)-2-[5-Naphthalen-2-yl-2-oxo-3-(4-trifluoromethylbenzoylamino)-2H-pyridin-1-yl]-3-phenylpropionic acid]: the IC50 is 28.5 µM in test [1] and > 100 µM in test [2].

In the case of `O=C(Nc1cc(-c2cncnc2)cn([C@@H](Cc2ccccc2)C(=O)O)c1=O)c1ccc(C(F)(F)F)cc1` [Compound 7, (S)-2-[2-Oxo-5-pyrimidin-5-yl-3-(4-trifluoromethylbenzoylamino)-2H-pyridin-1-yl]-3-phenylpropionic acid], the IC50 was 82.3 µM in test [1] and > 100 µM in test [2].

`CN(C)c1ccc(-c2cc(NC(=O)c3ccc(C(F)(F)F)cc3)c(=O)n([C@@H](COCc3ccccc3)C(=O)O)c2)cc1` [Compound 11, (S)-3-Benzyloxy-2-[5-(4-dimethylaminophenyl)-2-oxo-3-(4-trifluoromethyl-benzoylamino)-2H-pyridin-1-yl]propionic acid]: the results for the IC50 in test [1] and in test [2] were 76 µM and > 100 µM, respectively.

With `CC(C)Oc1ccc(-c2cc(NC(=O)c3ccc(C(F)(F)F)cc3)c(=O)n([C@@H](COCc3ccccc3)C(=O)O)c2)cc1` [Compound 12, (S)-3-Benzyloxy-2-[5-(4-isopropoxyphenyl)-2-oxo-3-(4-trifluoromethyl-benzoylamino)-2H-pyridin-1-yl]propionic acid], the values for the IC50 in test [1] and in test [2] were 67.2 µM and > 100 µM, respectively.

Take `O=C(Nc1cc(-c2ccc3ccccc3c2)cn([C@@H](COCc2ccccc2)C(=O)O)c1=O)c1ccc(C(F)(F)F)cc1` [Compound 13, (S)-3-Benzyloxy-2-[5-naphthalen-2-yl-2-oxo-3-(4-trifluoromethylbenzoylamino)-2H-pyridin-1-yl]propionic acid]: the IC50 in test [1] was 48 µM; in test [2], > 100 µM.

For the molecule `O=C(Nc1cc(-c2ccc(-c3ccccc3)cc2)cn(C(Cc2ccc(Cl)cc2)C(=O)O)c1=O)c1ccc(C(F)(F)F)cc1` (stereo not drawn) [Compound 17, 2-[5-Biphenyl-4-yl-2-oxo-3-(4-trifluoromethylbenzoylamino)-2H-pyridin-1-yl]-3-(4-chlorophenyl)propionic acid], the IC50 in test [1] is 2 µM; in test [2], > 100 µM.

Turning to `O=C(Nc1cc(-c2ccc(Oc3ccccc3)cc2)cn(C(Cc2ccc(Cl)cc2)C(=O)O)c1=O)c1ccc(C(F)(F)F)cc1` (stereo not drawn) [Compound 18, 3-(4-Chlorophenyl)-2-[2-oxo-5-(4-phenoxyphenyl)-3-(4-trifluoromethyl-benzoylamino)-2H-pyridin-1-yl]propionic acid], the IC50 is 2.3 µM in test [1] and > 100 µM in test [2].

As to `O=C(Nc1cc(-c2cccc3ccccc23)cn(C(Cc2ccc(Cl)cc2)C(=O)O)c1=O)c1ccc(C(F)(F)F)cc1` (stereo not drawn) [Compound 19, 3-(4-Chlorophenyl)-2-[5-naphthalen-1-yl-2-oxo-3-(4-trifluoromethyl-benzoylamino)-2H -1-yl]propionic acid], the IC50 is 5.5 µM in test [1] and > 100 µM in test [2].

Regarding `O=C(Nc1cc(-c2cccc(C(F)(F)F)c2)cn(C(Cc2ccc(Cl)cc2)C(=O)O)c1=O)c1ccc(Oc2ccccc2)cc1` (stereo not drawn) [Compound 23, 3-(4-Chlorophenyl)-2-[2-oxo-3-(4-phenoxybenzoylamino)-5-(3-trifluoromethyl-phenyl)-2H-pyridin-1-yl]propionic acid], the IC50 in test [1] is 9.8 µM; in test [2], > 100 µM.

Consider `O=C(Nc1cc(-c2cc3ccccc3o2)cn(C(Cc2ccc(Cl)cc2)C(=O)O)c1=O)c1ccc(C(F)(F)F)cc1` (stereo not drawn) [Compound 25, 2-[5-Benzofuran-2-yl-2-oxo-3-(4-trifluoromethylbenzoylamino)-2H-pyridin-1-yl]-3-(4-chlorophenyl)propionic acid], for which the IC50 in test [1] is 3.7 µM; in test [2], > 100 µM.

Turning to `O=C(Nc1cc(-c2cc3ccccc3s2)cn(C(Cc2ccc(Cl)cc2)C(=O)O)c1=O)c1ccc(C(F)(F)F)cc1` (stereo not drawn) [Compound 26, 2-[5-Benzo[b]thiophen-2-yl-2-oxo-3-(4-trifluoromethylbenzoylamino)-2H-pyridin-1-yl]-3-(4-chlorophenyl)propionic acid], the IC50 was 2.4 µM in test [1] and > 100 µM in test [2].

On to `CC(=O)c1ccc(-c2cc(NC(=O)c3ccc(C(F)(F)F)cc3)c(=O)n(C(Cc3ccc(Cl)cc3)C(=O)O)c2)s1` (stereo not drawn) [Compound 27, 2-[5-(5-Acetylthiophen-2-yl)-2-oxo-3-(4-trifluoromethylbenzoylamino)-2H-pyridin-1-yl]-3-(4-chlorophenyl)propionic acid], for which the IC50 in test [1] is 34.2 µM; in test [2] it was > 100 µM.

`CC(=O)Nc1cccc(-c2cc(NC(=O)c3ccc(C(F)(F)F)cc3)c(=O)n(C(Cc3ccc(Cl)cc3)C(=O)O)c2)c1` (stereo not drawn) [Compound 28, 2-[5-(3-Acetylaminophenyl)-2-oxo-3-(4-trifluoromethylbenzoylamino)-2H-pyridin-1-yl]-3-(4-chlorophenyl)propionic acid]: the figures for the IC50 in test [1] and in test [2] were 52.4 µM and > 100 µM, respectively.

For the molecule `O=C(Nc1cc(-c2ccc(O)cc2)cn(C(Cc2ccc(Cl)cc2)C(=O)O)c1=O)c1ccc(C(F)(F)F)cc1` (stereo not drawn) [Compound 29, 3-(4-Chlorophenyl)-2-[5-(4-hydroxyphenyl)-2-oxo-3-(4-trifluoromethyl-benzoylamino)-2H-pyridin-1-yl]propionic acid], the figures for the 50% inhibitory concentration (IC50) in test [1] and in test [2] were 31.8 µM and > 100 µM, respectively.

For the molecule `O=C(Nc1cc(C#Cc2ccccc2)cn(C(Cc2ccc(Cl)cc2)C(=O)O)c1=O)c1ccc(C(F)(F)F)cc1` (stereo not drawn) [Compound 31, 3-(4-Chlorophenyl)-2-[2-oxo-5-phenylethynyl-3-(4-trifluoromethylbenzoylamino)-2H-pyridin-1-yl]propionic acid], the results for the IC50 in test [1] and in test [2] were 34.2 µM and > 100 µM, respectively.

With `O=C(Nc1cc(-c2ccccc2)cn(C(Cc2ccc(Cl)cc2)C(=O)O)c1=O)c1ccc(-c2ccccc2)cc1` (stereo not drawn) [Compound 32, 2-{3-[(Biphenyl-4-carbonyl)amino]-2-oxo-5-phenyl-2H-pyridin-1-yl}-3-(4-chloro-phenyl)propionic acid], the IC50 was 2.3 µM in test [1] and > 100 µM in test [2].

As to `O=C(Nc1cc(-c2cc(F)cc(F)c2)cn(C(Cc2ccc(Cl)cc2)C(=O)O)c1=O)c1ccc(-c2ccccc2)cc1` (stereo not drawn) [Compound 36, [3-[(Biphenyl-4-carbonyl)amino]-5-(3,5-difluorophenyl)-2-oxo-2H-pyridin-1-yl]-3-(4-chlorophenyl)propionic acid], the values for the IC50 in test [1] and in test [2] were 2.4 µM and > 100 µM, respectively.

As for `O=C(Nc1cc(-c2ccc(Br)cc2)cn(C(Cc2ccc(Cl)cc2)C(=O)O)c1=O)c1ccc(-c2ccccc2)cc1` (stereo not drawn) [Compound 37, 2-[3-[(Biphenyl-4-carbonyl)amino]-5-(4-bromophenyl)-2-oxo-2H-pyridin-1-yl]-3-(4-chlorophenyl)propionic acid], the IC50 was 1.5 µM in test [1] and > 100 µM in test [2].

Take `O=C(Nc1cc(-c2cccc3ccccc23)cn(C(Cc2ccc(Cl)cc2)C(=O)O)c1=O)c1ccc(-c2ccccc2)cc1` (stereo not drawn) [Compound 46, 2-{3-[(Biphenyl-4-carbonyl)amino]-5-naphthalen-1-yl-2-oxo-2H-pyridin-1-yl}-3-(4-chlorophenyl)propionic acid]: the figures for the IC50 in test [1] and in test [2] were 1.1 µM and > 100 µM, respectively.
